Measured values reported in ChEMBL document CHEMBL4507293 (2021).
The source made the active and inactive calls. No cut-off for these calls is given here.

How the values were obtained:
[1] = molecular target: Monoamine oxidase B (MAO-B) (Homo sapiens, UniProt P27338); test: Inhibition of Monoamine Oxidase MAO-B at compound concentration of 10.0 uM in the Eurofins-Panlabs enzyme assay (Eurofins_assay_140120); design: substrate with concentration 50 uM Kynuramine, incubation time 60 min, incubation temperature 37 C; conditions: recombinant human MAO-B expressed in insect Hi5 cells, probe kynuramine, compound concentration 10 uM
[2] = molecular target: Prostaglandin E2 receptor EP1 subtype (Homo sapiens) (UniProt P34995); test: Prostanoid EP1 Eurofins-Panlabs radioligand binding assay; conditions: Compound concentration 10.0 uM
[3] = molecular target: Type-1 angiotensin II receptor (Homo sapiens) (UniProt P30556); test: Angiotensin AT1 Eurofins-Panlabs radioligand binding assay; conditions: Compound concentration 10.0 uM
[4] = molecular target: cAMP and cAMP-inhibited cGMP 3',5'-cyclic phosphodiesterase 10A (Homo sapiens, UniProt Q9Y233); test: Cell assay
[5] = molecular target: Prostaglandin G/H synthase 2 (Homo sapiens) (UniProt P35354); test: Inhibition of Cyclooxygenase COX-2 at compound concentration of 10.0 uM in the Eurofins-Panlabs enzyme assay (Eurofins_assay_118010); design: substrate with concentration 0.3 uM Arachidonic acid, incubation time 15 min, incubation temperature 37 C; conditions: Compound concentration 10.0 uM
[6] = molecular target: Purinergic P2Y (Rattus norvegicus) (UniProt O35811+Q9EPX4+P49651+Q63371+P41232+O35881+Q6GUG4); conditions: Compound concentration 10.0 uM
[7] = molecular target: T1, Alpha-1A adrenergic receptor (Homo sapiens) (UniProt P35348); conditions: Rattus norvegicus; Compound concentration 10.0 uM
T1 sequence (whole entry): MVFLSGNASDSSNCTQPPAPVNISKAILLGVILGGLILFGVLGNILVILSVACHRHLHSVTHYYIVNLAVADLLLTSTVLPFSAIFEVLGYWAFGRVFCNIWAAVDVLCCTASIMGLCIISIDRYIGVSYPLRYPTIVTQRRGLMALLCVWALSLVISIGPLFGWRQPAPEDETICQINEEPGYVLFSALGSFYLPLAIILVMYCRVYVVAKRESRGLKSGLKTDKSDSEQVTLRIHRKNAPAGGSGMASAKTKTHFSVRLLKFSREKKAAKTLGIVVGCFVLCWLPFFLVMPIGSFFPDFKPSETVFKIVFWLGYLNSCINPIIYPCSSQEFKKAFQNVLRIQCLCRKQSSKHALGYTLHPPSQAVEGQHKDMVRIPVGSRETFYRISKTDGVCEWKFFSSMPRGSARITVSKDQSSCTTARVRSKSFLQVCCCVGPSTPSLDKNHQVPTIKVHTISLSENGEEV

Caspase-8 (Homo sapiens) = Caspase-8 (Homo sapiens) (UniProt Q14790); test: Peptidase, CASP8 (Caspase 8) Eurofins-Panlabs enzyme assay; conditions: Compound concentration 10.0 uM
[8] = molecular target: Beta-1 adrenergic receptor (Homo sapiens) (UniProt P08588); conditions: Compound concentration 10.0 uM
[9] = molecular target: D(1A) dopamine receptor (Homo sapiens) (UniProt P21728); conditions: Compound concentration 10.0 uM
[10] = molecular target: Histamine H3 receptor (Homo sapiens) (UniProt Q9Y5N1); test: Histamine H3 Eurofins-Panlabs radioligand binding assay; conditions: Compound concentration 10.0 uM
[11] = molecular target: Alpha-1D adrenergic receptor (Homo sapiens) (UniProt P25100); conditions: Compound concentration 10.0 uM
[12] = molecular target: T2, Muscarinic acetylcholine receptor M5 (Homo sapiens) (UniProt P08912); test: Inhibition of Muscarinic M5 at 10 µM in the Eurofins-Panlabs radioligand binding assay (Eurofins_assay_253010); design: ligand concentration 0.8 nM; conditions: Compound concentration 10.0 uM
T2 sequence (whole entry): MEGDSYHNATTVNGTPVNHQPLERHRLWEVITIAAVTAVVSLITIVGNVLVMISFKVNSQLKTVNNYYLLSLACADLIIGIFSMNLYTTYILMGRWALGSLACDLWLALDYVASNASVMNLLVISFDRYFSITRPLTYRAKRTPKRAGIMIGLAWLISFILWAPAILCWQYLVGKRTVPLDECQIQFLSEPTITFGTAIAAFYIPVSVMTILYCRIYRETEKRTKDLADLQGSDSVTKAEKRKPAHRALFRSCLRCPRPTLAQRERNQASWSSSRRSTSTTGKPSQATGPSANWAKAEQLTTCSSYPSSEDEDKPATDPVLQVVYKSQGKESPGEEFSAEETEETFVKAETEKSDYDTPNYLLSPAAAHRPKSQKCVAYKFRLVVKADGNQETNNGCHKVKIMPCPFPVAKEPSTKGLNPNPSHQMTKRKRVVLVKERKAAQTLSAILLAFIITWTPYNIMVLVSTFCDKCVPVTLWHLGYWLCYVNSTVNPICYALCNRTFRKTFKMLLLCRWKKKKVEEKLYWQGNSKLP

Caspase-9 (Homo sapiens) = Caspase-9 (Homo sapiens) (UniProt P55211); test: Peptidase, CASP9 (Caspase 9) Eurofins-Panlabs enzyme assay; design: substrate with concentration; conditions: Compound concentration 10.0 uM
[13] = molecular target: Substance-P receptor (Homo sapiens) (UniProt P25103); test: Tachykinin NK1 Eurofins-Panlabs radioligand binding assay; conditions: Compound concentration 10.0 uM
[14] = molecular target: Glucocorticoid receptor (Homo sapiens) (UniProt P04150); test: Glucocorticoid Eurofins-Panlabs radioligand binding assay; conditions: Compound concentration 10.0 uM
[15] = molecular target: Melanocyte-stimulating hormone receptor (Homo sapiens) (UniProt Q01726); test: Melanocortin MC1 Eurofins-Panlabs radioligand binding assay; conditions: Compound concentration 10.0 uM
[16] = molecular target: Sodium-dependent serotonin transporter (Homo sapiens) (UniProt P31645); conditions: Compound concentration 10.0 uM
[17] = molecular target: T3, Muscarinic acetylcholine receptor M4 (Homo sapiens) (UniProt P08173); conditions: Compound concentration 10.0 uM
T3 sequence (whole entry): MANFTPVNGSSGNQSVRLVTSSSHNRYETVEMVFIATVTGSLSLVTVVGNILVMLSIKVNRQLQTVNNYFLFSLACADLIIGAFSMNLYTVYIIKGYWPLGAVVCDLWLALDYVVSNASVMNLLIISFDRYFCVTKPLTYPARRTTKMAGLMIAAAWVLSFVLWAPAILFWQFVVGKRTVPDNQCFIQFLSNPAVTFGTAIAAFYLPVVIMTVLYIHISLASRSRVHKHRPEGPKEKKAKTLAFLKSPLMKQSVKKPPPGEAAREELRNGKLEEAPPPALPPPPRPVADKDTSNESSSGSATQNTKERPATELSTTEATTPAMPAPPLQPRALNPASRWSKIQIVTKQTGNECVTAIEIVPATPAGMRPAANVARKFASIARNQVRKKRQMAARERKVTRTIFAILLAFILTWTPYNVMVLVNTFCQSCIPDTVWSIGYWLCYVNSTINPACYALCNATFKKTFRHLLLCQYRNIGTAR

[18] = molecular target: Nociceptin receptor (Homo sapiens) (UniProt P41146); test: Orphanin ORL1 Eurofins-Panlabs radioligand binding assay; conditions: Compound concentration 10.0 uM
[19] = molecular target: Cholecystokinin receptor type A (Homo sapiens) (UniProt P32238); test: Inhibition of Cholecystokinin CCK1 (CCKA) at 10 µM in the Eurofins-Panlabs radioligand binding assay (Eurofins_assay_218020); conditions: Compound concentration 10.0 uM
[20] = molecular target: 5-hydroxytryptamine receptor 3A (Homo sapiens) (UniProt P46098); conditions: Compound concentration 10.0 uM
[21] = molecular target: Sodium-dependent dopamine transporter (Homo sapiens) (UniProt Q01959); conditions: Compound concentration 10.0 uM

Alpha-1D adrenergic receptor (Homo sapiens), sequence (P25100 whole entry): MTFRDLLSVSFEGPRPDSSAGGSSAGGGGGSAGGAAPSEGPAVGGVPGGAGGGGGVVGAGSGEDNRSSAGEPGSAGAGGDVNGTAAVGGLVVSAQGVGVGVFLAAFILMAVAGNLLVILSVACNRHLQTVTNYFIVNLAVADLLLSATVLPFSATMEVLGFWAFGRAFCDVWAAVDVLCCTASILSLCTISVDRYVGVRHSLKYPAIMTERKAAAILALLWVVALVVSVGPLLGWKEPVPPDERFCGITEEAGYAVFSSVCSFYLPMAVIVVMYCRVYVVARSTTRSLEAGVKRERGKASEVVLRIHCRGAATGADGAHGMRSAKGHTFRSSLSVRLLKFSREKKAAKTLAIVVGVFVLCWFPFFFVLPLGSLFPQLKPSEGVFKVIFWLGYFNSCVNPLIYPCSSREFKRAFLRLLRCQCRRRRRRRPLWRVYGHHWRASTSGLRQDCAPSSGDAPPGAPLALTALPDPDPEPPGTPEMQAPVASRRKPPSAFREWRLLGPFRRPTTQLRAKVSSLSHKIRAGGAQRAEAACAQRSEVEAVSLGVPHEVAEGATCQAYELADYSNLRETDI
D(1A) dopamine receptor (Homo sapiens), sequence (P21728 whole entry): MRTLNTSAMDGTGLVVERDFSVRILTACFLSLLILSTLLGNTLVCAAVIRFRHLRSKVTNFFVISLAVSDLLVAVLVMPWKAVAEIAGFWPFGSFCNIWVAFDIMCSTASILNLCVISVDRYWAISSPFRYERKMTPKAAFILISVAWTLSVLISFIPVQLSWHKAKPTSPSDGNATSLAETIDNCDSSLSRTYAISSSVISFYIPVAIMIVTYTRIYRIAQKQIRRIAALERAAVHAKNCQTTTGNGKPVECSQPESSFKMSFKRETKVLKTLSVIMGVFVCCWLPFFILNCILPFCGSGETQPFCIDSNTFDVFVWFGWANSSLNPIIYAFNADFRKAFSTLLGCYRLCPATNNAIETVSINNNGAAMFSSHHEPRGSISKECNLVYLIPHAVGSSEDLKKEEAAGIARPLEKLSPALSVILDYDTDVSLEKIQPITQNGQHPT
Sodium-dependent serotonin transporter (Homo sapiens), sequence (P31645 whole entry, looked up): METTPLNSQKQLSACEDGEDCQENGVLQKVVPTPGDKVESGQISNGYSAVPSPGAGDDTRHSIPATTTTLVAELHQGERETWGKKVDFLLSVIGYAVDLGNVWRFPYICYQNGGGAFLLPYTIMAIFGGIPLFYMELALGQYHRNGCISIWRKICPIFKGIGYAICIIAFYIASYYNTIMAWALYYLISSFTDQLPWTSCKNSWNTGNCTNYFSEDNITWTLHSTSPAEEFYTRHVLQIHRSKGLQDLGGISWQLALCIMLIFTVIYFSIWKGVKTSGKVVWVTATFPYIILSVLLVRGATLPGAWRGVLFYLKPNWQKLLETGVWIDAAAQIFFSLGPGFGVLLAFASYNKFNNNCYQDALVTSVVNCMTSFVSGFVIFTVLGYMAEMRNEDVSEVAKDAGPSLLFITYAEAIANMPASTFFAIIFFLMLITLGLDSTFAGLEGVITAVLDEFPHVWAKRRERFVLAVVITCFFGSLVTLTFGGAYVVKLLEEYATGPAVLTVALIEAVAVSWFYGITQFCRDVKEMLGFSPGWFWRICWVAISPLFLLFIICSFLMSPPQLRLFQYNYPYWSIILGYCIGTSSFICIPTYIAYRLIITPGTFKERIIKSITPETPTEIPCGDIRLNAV
5-hydroxytryptamine receptor 3A (Homo sapiens), sequence (P46098 whole entry): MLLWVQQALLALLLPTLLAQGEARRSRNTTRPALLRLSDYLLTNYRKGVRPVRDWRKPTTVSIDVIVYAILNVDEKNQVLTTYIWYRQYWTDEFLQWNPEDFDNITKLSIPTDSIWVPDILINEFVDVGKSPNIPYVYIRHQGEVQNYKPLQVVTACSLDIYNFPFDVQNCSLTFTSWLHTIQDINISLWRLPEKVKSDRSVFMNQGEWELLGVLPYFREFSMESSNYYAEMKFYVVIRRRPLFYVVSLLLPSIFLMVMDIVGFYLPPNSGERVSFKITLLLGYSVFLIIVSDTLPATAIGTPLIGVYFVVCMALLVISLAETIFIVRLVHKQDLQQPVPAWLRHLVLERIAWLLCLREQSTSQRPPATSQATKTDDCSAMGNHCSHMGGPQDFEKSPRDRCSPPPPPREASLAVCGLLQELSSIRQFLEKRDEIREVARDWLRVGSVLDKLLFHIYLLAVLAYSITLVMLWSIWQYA
Cholecystokinin receptor type A (Homo sapiens), sequence (P32238 whole entry): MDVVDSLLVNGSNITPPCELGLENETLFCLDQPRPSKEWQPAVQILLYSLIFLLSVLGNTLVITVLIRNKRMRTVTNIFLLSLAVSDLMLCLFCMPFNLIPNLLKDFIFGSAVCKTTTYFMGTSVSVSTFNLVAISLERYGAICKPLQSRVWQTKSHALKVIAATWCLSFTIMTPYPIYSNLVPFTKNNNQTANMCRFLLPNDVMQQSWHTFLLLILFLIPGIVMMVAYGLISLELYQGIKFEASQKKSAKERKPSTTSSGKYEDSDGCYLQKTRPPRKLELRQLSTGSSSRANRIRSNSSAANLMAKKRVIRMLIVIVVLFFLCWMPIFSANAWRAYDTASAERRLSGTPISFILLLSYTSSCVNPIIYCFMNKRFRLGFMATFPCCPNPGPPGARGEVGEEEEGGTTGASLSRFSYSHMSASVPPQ
Caspase-9 (Homo sapiens), sequence (P55211 1-315 limits assumed): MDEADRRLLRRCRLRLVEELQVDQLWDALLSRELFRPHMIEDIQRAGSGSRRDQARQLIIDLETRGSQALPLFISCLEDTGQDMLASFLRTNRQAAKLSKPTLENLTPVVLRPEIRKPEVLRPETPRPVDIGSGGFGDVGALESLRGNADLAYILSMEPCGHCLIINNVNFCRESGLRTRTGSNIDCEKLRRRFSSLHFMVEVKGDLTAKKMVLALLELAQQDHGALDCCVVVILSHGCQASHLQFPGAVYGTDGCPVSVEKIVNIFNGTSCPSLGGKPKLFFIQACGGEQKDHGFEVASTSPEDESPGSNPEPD
Caspase-9 (Homo sapiens), sequence (P55211 331-416 limits assumed): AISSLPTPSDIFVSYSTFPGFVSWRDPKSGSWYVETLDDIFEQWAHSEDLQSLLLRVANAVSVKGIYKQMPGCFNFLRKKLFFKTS
Glucocorticoid receptor (Homo sapiens), sequence (P04150 whole entry): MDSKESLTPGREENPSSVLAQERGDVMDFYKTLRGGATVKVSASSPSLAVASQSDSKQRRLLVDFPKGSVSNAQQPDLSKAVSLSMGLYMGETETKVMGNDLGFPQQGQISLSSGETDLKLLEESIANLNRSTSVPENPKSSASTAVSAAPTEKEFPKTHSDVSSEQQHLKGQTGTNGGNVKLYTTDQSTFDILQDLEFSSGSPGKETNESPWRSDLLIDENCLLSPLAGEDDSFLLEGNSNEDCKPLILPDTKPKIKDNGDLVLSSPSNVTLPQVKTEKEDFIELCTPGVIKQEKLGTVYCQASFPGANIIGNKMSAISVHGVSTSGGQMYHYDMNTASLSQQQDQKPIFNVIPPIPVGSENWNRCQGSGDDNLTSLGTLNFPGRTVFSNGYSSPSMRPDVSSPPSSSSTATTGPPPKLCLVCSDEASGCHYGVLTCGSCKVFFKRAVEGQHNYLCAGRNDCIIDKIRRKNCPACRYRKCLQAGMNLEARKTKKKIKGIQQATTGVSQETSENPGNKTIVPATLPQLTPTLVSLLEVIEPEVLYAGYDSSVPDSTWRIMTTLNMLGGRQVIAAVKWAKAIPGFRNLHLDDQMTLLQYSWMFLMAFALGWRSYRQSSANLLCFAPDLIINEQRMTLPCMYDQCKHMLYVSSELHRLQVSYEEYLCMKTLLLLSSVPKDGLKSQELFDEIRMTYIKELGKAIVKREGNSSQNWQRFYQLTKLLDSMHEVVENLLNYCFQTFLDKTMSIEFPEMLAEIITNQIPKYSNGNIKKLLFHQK
cAMP and cAMP-inhibited cGMP 3',5'-cyclic phosphodiesterase 10A, sequence (Q9Y233 whole entry): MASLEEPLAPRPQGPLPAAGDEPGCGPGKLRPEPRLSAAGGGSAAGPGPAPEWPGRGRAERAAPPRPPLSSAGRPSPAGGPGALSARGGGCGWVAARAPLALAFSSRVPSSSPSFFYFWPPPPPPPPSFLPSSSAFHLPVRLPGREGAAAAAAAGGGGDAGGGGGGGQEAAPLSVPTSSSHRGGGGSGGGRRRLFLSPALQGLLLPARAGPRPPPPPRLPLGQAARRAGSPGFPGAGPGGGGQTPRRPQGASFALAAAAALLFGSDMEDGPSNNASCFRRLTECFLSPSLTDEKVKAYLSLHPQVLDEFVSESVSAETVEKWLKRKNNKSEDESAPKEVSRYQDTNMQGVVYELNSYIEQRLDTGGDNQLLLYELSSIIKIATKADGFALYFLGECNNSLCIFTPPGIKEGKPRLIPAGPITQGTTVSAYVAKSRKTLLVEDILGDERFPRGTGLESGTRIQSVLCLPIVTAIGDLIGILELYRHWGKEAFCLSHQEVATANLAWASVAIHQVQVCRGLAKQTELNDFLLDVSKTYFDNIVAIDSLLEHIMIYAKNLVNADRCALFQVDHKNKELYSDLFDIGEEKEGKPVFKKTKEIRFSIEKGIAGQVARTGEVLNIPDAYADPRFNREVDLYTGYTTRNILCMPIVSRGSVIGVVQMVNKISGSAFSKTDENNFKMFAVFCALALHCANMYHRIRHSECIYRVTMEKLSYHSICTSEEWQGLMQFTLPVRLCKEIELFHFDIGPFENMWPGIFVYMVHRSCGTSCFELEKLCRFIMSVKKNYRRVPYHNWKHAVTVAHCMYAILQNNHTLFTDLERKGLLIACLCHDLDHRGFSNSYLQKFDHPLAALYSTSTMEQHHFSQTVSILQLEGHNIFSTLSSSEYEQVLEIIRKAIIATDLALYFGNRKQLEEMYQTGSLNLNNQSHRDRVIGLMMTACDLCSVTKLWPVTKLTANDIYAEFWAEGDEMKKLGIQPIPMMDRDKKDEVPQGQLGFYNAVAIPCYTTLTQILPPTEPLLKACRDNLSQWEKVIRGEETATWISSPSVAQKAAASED

Compound: COCCOc1nc(-c2ccc(Cl)nc2)nc2c1CN(C(=O)c1ncn3ccccc13)CC2 [THPP-1]
- inhibition at 60 min, 10 µM [1]: 32% (not active)
- inhibition [2]: -1%
- inhibition [3]: 3%
- IC50 [4]: 49 nM (active)
- inhibition [5]: -10%
- inhibition [6]: 5%
- inhibition [7]: 9%
- inhibition (Caspase-8 (Homo sapiens)): -3%
- inhibition [8]: -3%
- inhibition [9]: 6%
- inhibition [10]: -1%
- inhibition [11]: -4.48%
- inhibition [12]: 1%
- inhibition (Caspase-9 (Homo sapiens)): -5%
- inhibition [13]: 8%
- inhibition [14]: -6%
- inhibition [15]: 23%
- inhibition [16]: 2%
- inhibition [17]: 5%
- inhibition [18]: 5%
- inhibition [19]: 5%

Compound: CC(C)CC(=O)N1CCc2nc(-c3ccc(Br)cc3)nc(N(C)Cc3ccccc3)c2C1 [THPP-1-NC]
- inhibition [20]: -4.38%
- inhibition [21]: 15.3%
